Values of other authors in patent US11459499B2, “Amidoamine-based gemini surfactant containing ethoxylate units and a method for oil recovery” (King Fahd University of Petroleum and Minerals, priority 2018, dated 2022).
Read-outs that look alike come from different tables or passages of the source.

Row | SMILES | reported CMC (literature (Hoque et al., 2012)) [mM] | reported CMC (literature (Lu et al., 2012))
1 | CCCCCCCCCCCC[N+](C)(C)C.[Br-] [DTAB, dodecyltrimethylammonium bromide] | 16.1 | 5.0×10^−1 wt. %
2 | CCCCCCCCCCCC[N+](C)(C)CC[N+](C)(C)CCCCCCCCCCCC.[Br-].[Br-] [12-2-12] | – | about 5.5×10^−2 wt. %
